Reference: patent publication US11726081B2, “Methods to identify modulators of tau protein structure” (REGENTS OF THE UNIVERSITY OF MINNESOTA, priority 2019, dated 2023)
“Also recorded” adds a separate entry of the source.

Legend:
[1] = biological target: purified recombinant full-length 2N4R wild-type (WT) tau protein (Homo sapiens, UniProt P10636); assay: Surface plasmon resonance (SPR) binding assay, WT tau; conditions: for direct binding to immobilized tau protein: 1 nM to 5 μM
[2] = system: soluble free GFP/RFP; assay: Soluble free GFP/RFP-only FRET control; format: cell-based, human
Experimental: (§1) HEK293 and SH-SY5Y cells (ATCC) were cultured in phenol red-free Dulbecco's Modified Eagle Medium (DMEM, Gibco) supplemented with 2 mM L-Glutamine (Invitrogen), heat-inactivated 10% fetal bovine serum (FBS HI, Gibco), 100 U/ml penicillin and 100 μg/ml streptomycin (Gibco). Cell cultures were maintained in an incubator with 5% CO2 (Forma Series II Water Jacket CO2 Incubator, Thermo Scientific) at 37° C. […] To generate stable cell lines expressing GFP-tau-RFP or tau-GFP only, HEK293 cells were transiently transfected using Lipofectamine 3000 with GFP-tau-RFP or tau-GFP DNA plasmids. Transiently transfected cells were treated with G418 (Enzo Life Sciences, Farmingdale, N.Y.) to eliminate non-expressing cells. Stable cell lines expressing GFP-tau-RFP or tau-GFP with the largest population of expressing cells were selected by fluorescence microscopy. The GFP-linker-RFP (linker contains 32 amino acids, GFP-32AA-RFP) control stable cell line was generated as described previously. The control cells expressing only free soluble fluorophores (GFP or RFP only) were generated by transiently transfecting HEK293 cells using Lipofectamine 3000 with plasmids containing GFP or RFP DNAs at the same plasmid concentration as the inter-molecular tau FRET biosensor.
(§2) The compound was dissolved in DMSO to make a 10 mM stock solution, which was serially diluted in 96-well mother plates. […]

[3] = system: WT 2N4R tau; assay: Single-molecule FRET (smFRET) on labelled tau monomer; format: biochemical; conditions: 5 μM
Source text: For site-specific labeling with maleimide-reactive fluorophores, cysteine residues were introduced using QuikChange Site-Directed Mutagenesis (Stratagene). Naturally occurring cysteines were mutated to serines. Labelling positions were selected to roughly mark the boundaries of the N-terminal domain or the proline-rich and microtubule-binding region of tau. Tau protein was purified as described above and labeled immediately following purification following published protocols. Briefly, the protein (typically 200 μL of ˜100 μM protein) was incubated with 1 mM DTT for 30 minutes at room temperature followed by exchange into labeling buffer (20 mM Tris pH 7.4, 50 mM NaCl, and 6 M guanidine HCl) to remove DTT. […]
Single-molecule FRET measurements were carried out using ˜30 pM of labelled tau in phosphate buffer (40 mM potassium phosphate, 50 mM KCl, pH 7.4) in 8-chambered Nunc coverslips (ThermoFisher) passivated with poly(ethylene glycol) poly(L-lysine) (PEG-PLL) to reduce protein adsorption to the chambers. […] Fluorescence emission was collected through the objective and passed through a 150 μm diameter pinhole. Photons were separated by an HQ585LP dichroic in combination with ET525/50M and HQ600LP filters and detected by avalanche photodiodes. […] The FRET efficiency (ETeff) was calculated using SymphoTime 64 software. […]

[4] = biological target: tau preformed fibrils (PFF) (Homo sapiens, UniProt P10636); assay: ThT assay on tau preformed fibrils (PFF); format: biochemical; conditions: DTT 5 mM
Sequence of tau preformed fibrils (PFF) (P10636 1-441 isoform P10636-8): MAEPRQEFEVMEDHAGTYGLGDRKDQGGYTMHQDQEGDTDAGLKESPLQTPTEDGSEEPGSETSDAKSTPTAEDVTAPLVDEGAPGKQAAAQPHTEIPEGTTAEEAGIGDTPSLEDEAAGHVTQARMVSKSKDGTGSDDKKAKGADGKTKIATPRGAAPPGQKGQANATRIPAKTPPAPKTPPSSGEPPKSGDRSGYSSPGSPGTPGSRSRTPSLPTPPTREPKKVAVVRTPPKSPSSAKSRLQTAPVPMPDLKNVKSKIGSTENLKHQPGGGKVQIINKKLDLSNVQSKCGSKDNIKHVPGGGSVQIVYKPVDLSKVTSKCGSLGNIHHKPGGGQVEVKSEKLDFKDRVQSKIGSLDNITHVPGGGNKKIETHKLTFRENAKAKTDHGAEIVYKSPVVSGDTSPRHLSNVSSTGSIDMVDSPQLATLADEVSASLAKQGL
Experimental: HEK293 cells were transfected with tau-RFP (at equivalent DNA concentration as used in the tau FRET biosensor) for 48 hours prior to the addition of tau preformed fibrils (PFF). Tau-GFP was not used as it would interfere with the thioflavin-S(ThS) signal. To make the PFF, 100 μl of purified tau proteins (10 μM) with DTT (5 mM) and heparin (0.4 mg/ml) were first incubated for 120 hours at 37° C. and shook at 1000 rpm in a thermal shaker (Thermo Fisher Scientific). After incubation, the sample was subjected to ultracentrifugation at 80,000 rpm for 30 minutes. The pellet was collected and sonicated to break up the fibrils into smaller pieces. The concentration of the fibrils was then measured by BCA. […] Cells were then imaged with a fluorescence microscope using EVOS-FL cell imaging systems at 20× magnification. Mean fluorescence intensity for each image was quantified using ImageJ and values were normalized to untransfected controls.
Thioflavin-T (ThT, Sigma, product no. T3516) was dissolved in PBS buffer and was filtered through a 0.2 μm syringe filter to make a stock solution of 2.5 mM. […] The ThT samples (50 μl each) were transferred to a black 96-well non-binding surface microplate with clear bottom (Corning product no. 3655) and incubated at 37° C. with mild shaking (200 rpm) in the Cytation 3 plate reader. […] Readings were acquired every 20 minutes for a total of 120 hours.

[5] = biological target: T1, WT tau FRET biosensor (tau-GFP/RFP) (Homo sapiens, UniProt P10636); assay: WT tau inter-molecular FRET biosensor in HEK293 cells (dose-response, functionality); format: cell-based; design: cDNA encoding full-length 2N4R tau (441 amino acids); […]; expressed in transfected cells; host or cells: HEK293, transient, tau-GFP:tau-RFP plasmids 1:20
T1 sequence (P10636 1-441 isoform P10636-8): as above
T1 sequence (P10636 1-441 isoform P10636-8): as above
Experimental: as §1, §2

[6] = biological target: purified WT tau proteins (Homo sapiens, UniProt P10636); assay: Heparin induced thioflavin-T (ThT) aggregation assay; format: biochemical
Sequence of purified WT tau proteins (P10636 1-441 isoform P10636-8): as above
Experimental: Thioflavin-T (ThT, Sigma, product no. T3516) was dissolved in PBS buffer and was filtered through a 0.2 μm syringe filter to make a stock solution of 2.5 mM. ThT was then diluted to […] prior to addition to the tau proteins. The samples for ThT measurements were prepared by mixing 25 μl of 20 μM tau proteins with 25 μl of 20 μM of ThT, resulting in final concentrations of 10 μM tau proteins and 10 μM ThT. DTT (5 mM) and heparin (0.4 mg/ml) were then added to the samples; a control sample lacked addition of heparin. Lastly, the samples were treated with MK-886 (0.5 μM or 5 μM) and gossypetin (50 μM) with DMSO added to the no-compound controls. The ThT samples (50 μl each) were transferred to a black 96-well non-binding surface microplate with clear bottom (Corning product no. 3655) and incubated at 37° C. with mild shaking (200 rpm) in the Cytation 3 plate reader. The ThT fluorescence was measured by the Cytation 3 plate reader through the bottom of the plate with excitation filter of 440 nm and emission filter of 480 nm. Readings were acquired every 20 minutes for a total of 120 hours.

[7] = system: GFP-32AA-RFP; assay: GFP-32AA-RFP fluorophores-only FRET control; format: cell-based, human
Experimental: as §1, §2

[8] = biological target: T1, WT tau FRET biosensor (tau-GFP/RFP); assay: Pilot HTS of NCC library with tau FRET biosensor (fluorescence lifetime); conditions: 10 μM, 2 hours
[9] = biological target: T2, tau intra-molecular FRET biosensor (GFP-tau-RFP) (Homo sapiens, UniProt P10636); assay: Cellular tau intra-molecular FRET biosensor, dose-response; format: cell-based; conditions: GFP-tau-RFP stable HEK293 cells; read-out: EC50, reduction of intra-molecular FRET
T2 construct: The FRET biosensors express full-length 2N4R wild-type (WT) tau; […]; expressed in transfected cells
T2 sequence (P10636 1-441 isoform P10636-8): as above
Experimental: To generate tau-GFP and tau-RFP, cDNA encoding full-length 2N4R tau (441 amino acids) was fused to the N-terminus of EGFP and TagRFP vectors. […] The GFP-tau-RFP was generated by fusing the N-terminal of tau to the C-terminus of GFP and the C-terminus of tau to the N-terminus of RFP. All constructs contain the monomeric mutation A206K to prevent constitutive fluorophore clustering.
as §1, with “The control cells expressing only free soluble fluorophores (GFP or RFP only) were generated by transiently transfecting HEK293 cells using Lipofectamine 3000 with plasmids containing GFP or RFP DNAs at the same plasmid concentration as the inter-molecular tau FRET biosensor.” left out

[10] = control, 72 hours of incubation

Sequence of purified recombinant full-length 2N4R wild-type (WT) tau protein (P10636 1-441 isoform P10636-8): as above

Compound: CCc1oc2ccccc2c1C(=O)c1cc(Br)c(O)c(Br)c1 [Benzbromarone]
- direct binding to immobilized tau protein [1]: no direct binding or interaction

Compound: CCCCNc1cc(C(=O)O)cc(S(N)(=O)=O)c1Oc1ccccc1 [Bumetanide]
- direct binding to immobilized tau protein [1]: no direct binding or interaction

Compound: CC(C)c1ccc2c(c1)c(SC(C)(C)C)c(CC(C)(C)C(=O)O)n2Cc1ccc(Cl)cc1 [MK-886]
- FRET change in soluble free GFP/RFP-only control cells [2]: does not cause any significant FRET change
- smFRET change, N-terminal domain labelled construct [3]: only a minor decrease in FRET; also recorded: only minor differences
- smFRET change, PRR/MTBR labelled construct [3]: substantial increase in FRET; also recorded: substantially more compact (increase in FRET)
- ThT signal from tau preformed fibrils (PFF) [4]: did not reduce the ThT signal
- EC50 ([5]; read-out: EC50, decrease of FRET efficiency, WT tau biosensor): 1400 nM
- direct binding to immobilized tau protein [1]: dose-dependent binding
- Kd ([1]; steady-state, immobilized tau, 25° C.): 178 nM
- direct effect on ThT fluorescence [6, 10]: did not have a direct effect on ThT fluorescence; also recorded: do not interfere with ThT fluorescence
- nucleation of fibril formation without heparin [6, 10]: unable to nucleate tau fibrillization; also recorded: did not act to nucleate for fibril formation; also recorded: does not act as a nucleation center
- lag phase of tau β-sheet fibril formation ([6]; heparin 0.4 mg/ml, MK-886 0.5 and 5 μM): reduces the lag phase; also recorded: shortens the lag phase
- FRET change in GFP-32AA-RFP control cells [7]: does not cause any significant FRET change
- size of FRET change among the hits [8]: strongest change in FRET; also recorded: largest FRET change
- EC50 [9]: 2120 nM

Compound: Cc1cccc(Nc2ccncc2S(=O)(=O)NC(=O)NC(C)C)c1 [Torsemide]
- direct binding to immobilized tau protein [1]: no direct binding or interaction

Compound: Oc1cc(Cl)ccc1Oc1ccc(Cl)cc1Cl [Triclosan]
- direct binding to immobilized tau protein [1]: no direct binding or interaction

Compound: O=c1c(O)c(-c2ccc(O)c(O)c2)oc2c(O)c(O)cc(O)c12 [gossypetin]
- ThT signal from tau preformed fibrils (PFF) [4]: showed a significant decrease
- sensitivity of the FRET biosensor to the compound ([5]; functionality test): not
- direct effect on ThT fluorescence [6, 10]: do not interfere with ThT fluorescence
